Patent US12616712B2 (LONZA SALES AG, priority 2019, dated 2026)

Test system: GL261-Luc glioblastoma multiforme
Assay: syngeneic GL261-Luc glioblastoma multiforme model
Assay type: in vivo
Details: mice, control groups, FIG. 7A
Procedure: The efficacy of exoSTING treatment in a syngeneic GL261-Luc glioblastoma multiforme model was assessed. Briefly, 5×10^5 GL261-LUC cells were administered via a 10 μl intra-striatal stereotactic injection to the mice. Tumor presence was confirmed by T1-weighted (T1W) MRI scan 15 days later. Four days after the MRI scan, when tumors were approximately 80-100 mm^3, stereotactic coordinates were used to administer 5 μl (˜120 ng) ExoSTING every 72 hours for 3 total injections to some of the animals. […] Anti-PDL-1 mAb was dosed twice weekly for 2 weeks (IOmpk IV). Phosphate buffered saline (PBS) alone and Temozolomide (TMZ) alone were dosed twice weekly for 2 weeks (30mpk IP). Mice were then followed for survival end-point.

`Cn1nnc2c(C(N)=O)ncn2c1=O` [Temozolamide] was tested, and the “survival: all animals succumbed to the tumor by day post tumor induction” value was ~40 days.
